Experimental data as given in the supplement of paper PMC13207355.

Tests used:
Details in all cases: exposure time: 72 h
E31 [1] = patient-derived glioblastoma stem cells of proneural subtype; assay: surviving fraction (nuclei count normalised to DMSO); higher = more cells surviving (less toxic)
E34 [2] = patient-derived glioblastoma stem cells of proneural subtype; assay: as above
FT3469 [3] = normal neural stem cell line; assay: as above
E13 [4] = patient-derived glioblastoma stem cells of classical subtype; assay: as above
E21 [5] = patient-derived glioblastoma stem cells of mesenchymal subtype; assay: as above
E28 [6] = patient-derived glioblastoma stem cells of classical subtype; assay: as above
E57 [7] = patient-derived glioblastoma stem cells of mesenchymal subtype; assay: as above
E31 [8] = assay: phenotypic distance (Euclidean, principal components) from DMSO controls (arbitrary units); higher = stronger morphological change
E34 [9] = assay: as above
FT3469 [10] = assay: as above
E13 [11] = assay: as above
E21 [12] = assay: as above
E28 [13] = assay: as above
E57 [14] = assay: as above
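For phenotypic distance (Euclidean, principal components) from DMSO controls in this document: cell Painting imaging in 384-well plates, CellProfiler features reduced to at least 20 principal components, Euclidean distance versus same-plate DMSO vehicle wells (0.1% v/v), median over six images per well.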
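For surviving fraction (nuclei count normalised to DMSO) in this document: nuclei counted by high-content imaging of Hoechst-stained cells in laminin-coated 384-well plates, relative to 0.1% DMSO vehicle wells, with staurosporine as cell-death control.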

CC[C@@]1(O)C(=O)OCc2c1cc1n(c2=O)Cc2cc3c(CN(C)C)c(O)ccc3nc2-1 [Topotecan]
Details	phenotypic distance	surviving fraction
E13 [4], 4.1 nM	–	0.414
E13 [4], 12.3 nM	–	0.381
E13 [4], 37 nM	–	0.367
E13 [4], 111.1 nM	–	0.279
E13 [4], 333.3 nM	–	0.251
E13 [4], 1000 nM	–	0.206
E13 [4], 3000 nM	–	0.176
E13 [11], 4.1 nM	5.03	–
E13 [11], 12.3 nM	5.52	–
E13 [11], 37 nM	5.83	–
E13 [11], 111.1 nM	6.68	–
E13 [11], 333.3 nM	6.45	–
E13 [11], 1000 nM	6.68	–
E13 [11], 3000 nM	7.15	–
E21 [5], 4.1 nM	–	0.191
E21 [5], 12.3 nM	–	0.135
E21 [5], 37 nM	–	0.114
E21 [5], 111.1 nM	–	0.115
E21 [5], 333.3 nM	–	0.13
E21 [5], 1000 nM	–	0.113
E21 [5], 3000 nM	–	0.104
E21 [12], 4.1 nM	4.95	–
E21 [12], 12.3 nM	5.78	–
E21 [12], 37 nM	6.25	–
E21 [12], 111.1 nM	6.93	–
E21 [12], 333.3 nM	5.67	–
E21 [12], 1000 nM	5.76	–
E21 [12], 3000 nM	5.07	–
E28 [6], 4.1 nM	–	0.408
E28 [6], 12.3 nM	–	0.351
E28 [6], 37 nM	–	0.384
E28 [6], 111.1 nM	–	0.347
E28 [6], 333.3 nM	–	0.333
E28 [6], 1000 nM	–	0.288
E28 [6], 3000 nM	–	0.28
E28 [13], 4.1 nM	3.44	–
E28 [13], 12.3 nM	3.75	–
E28 [13], 37 nM	3.05	–
E28 [13], 111.1 nM	3.65	–
E28 [13], 333.3 nM	3.55	–
E28 [13], 1000 nM	4.27	–
E28 [13], 3000 nM	4.08	–
E31 [1], 4.1 nM	–	0.173
E31 [1], 12.3 nM	–	0.149
E31 [1], 37 nM	–	0.188
E31 [1], 111.1 nM	–	0.176
E31 [1], 333.3 nM	–	0.249
E31 [1], 1000 nM	–	0.17
E31 [1], 3000 nM	–	0.213
E31 [8], 4.1 nM	3.31	–
E31 [8], 12.3 nM	3.53	–
E31 [8], 37 nM	2.95	–
E31 [8], 111.1 nM	3.38	–
E31 [8], 333.3 nM	3.17	–
E31 [8], 1000 nM	3.49	–
E31 [8], 3000 nM	3.68	–
E34 [2], 4.1 nM	–	0.539
E34 [2], 12.3 nM	–	0.576
E34 [2], 37 nM	–	0.519
E34 [2], 111.1 nM	–	0.55
E34 [2], 333.3 nM	–	0.529
E34 [2], 1000 nM	–	0.519
E34 [2], 3000 nM	–	0.389
E34 [9], 4.1 nM	3.5	–
E34 [9], 12.3 nM	2.99	–
E34 [9], 37 nM	3.02	–
E34 [9], 111.1 nM	2.09	–
E34 [9], 333.3 nM	2.86	–
E34 [9], 1000 nM	4.13	–
E34 [9], 3000 nM	3.32	–
E57 [7], 4.1 nM	–	0.321
E57 [7], 12.3 nM	–	0.211
E57 [7], 37 nM	–	0.175
E57 [7], 111.1 nM	–	0.164
E57 [7], 333.3 nM	–	0.145
E57 [7], 1000 nM	–	0.129
E57 [7], 3000 nM	–	0.109
E57 [14], 4.1 nM	6.01	–
E57 [14], 12.3 nM	7.66	–
E57 [14], 37 nM	7.47	–
E57 [14], 111.1 nM	7.5	–
E57 [14], 333.3 nM	7.56	–
E57 [14], 1000 nM	6.96	–
E57 [14], 3000 nM	7.64	–
FT3469 [3], 4.1 nM	–	0.622
FT3469 [3], 12.3 nM	–	0.625
FT3469 [3], 37 nM	–	0.634
FT3469 [3], 111.1 nM	–	0.653
FT3469 [3], 333.3 nM	–	0.629
FT3469 [3], 1000 nM	–	0.446
FT3469 [3], 3000 nM	–	0.464
FT3469 [10], 4.1 nM	2.65	–
FT3469 [10], 12.3 nM	1.91	–
FT3469 [10], 37 nM	2.54	–
FT3469 [10], 111.1 nM	2.79	–
FT3469 [10], 333.3 nM	2.66	–
FT3469 [10], 1000 nM	3.43	–
FT3469 [10], 3000 nM	3.06	–

Nc1ccc(-c2ccc3ncc4ccc(=O)n(-c5cccc(C(F)(F)F)c5)c4c3c2)cn1 [Torin2]
Details	phenotypic distance	surviving fraction
E13 [4], 4.1 nM	–	0.816
E13 [4], 12.3 nM	–	0.728
E13 [4], 37 nM	–	0.628
E13 [4], 111.1 nM	–	0.537
E13 [4], 333.3 nM	–	0.467
E13 [4], 1000 nM	–	0.434
E13 [4], 3000 nM	–	0.387
E13 [11], 4.1 nM	1.33	–
E13 [11], 12.3 nM	2.1	–
E13 [11], 37 nM	2.69	–
E13 [11], 111.1 nM	3.25	–
E13 [11], 333.3 nM	4.2	–
E13 [11], 1000 nM	4.27	–
E13 [11], 3000 nM	4.72	–
E21 [5], 4.1 nM	–	0.939
E21 [5], 12.3 nM	–	0.836
E21 [5], 37 nM	–	0.924
E21 [5], 111.1 nM	–	0.595
E21 [5], 333.3 nM	–	0.326
E21 [5], 1000 nM	–	0.31
E21 [5], 3000 nM	–	0.252
E21 [12], 4.1 nM	1.71	–
E21 [12], 12.3 nM	2.07	–
E21 [12], 37 nM	2.44	–
E21 [12], 111.1 nM	3.36	–
E21 [12], 333.3 nM	6.2	–
E21 [12], 1000 nM	4.67	–
E21 [12], 3000 nM	5.09	–
E28 [6], 4.1 nM	–	0.829
E28 [6], 12.3 nM	–	0.687
E28 [6], 37 nM	–	0.705
E28 [6], 111.1 nM	–	0.526
E28 [6], 333.3 nM	–	0.534
E28 [6], 1000 nM	–	0.417
E28 [6], 3000 nM	–	0.324
E28 [13], 4.1 nM	1.23	–
E28 [13], 12.3 nM	2.35	–
E28 [13], 37 nM	2.78	–
E28 [13], 111.1 nM	3.06	–
E28 [13], 333.3 nM	2.87	–
E28 [13], 1000 nM	3.67	–
E28 [13], 3000 nM	3.52	–
E31 [1], 4.1 nM	–	0.743
E31 [1], 12.3 nM	–	0.669
E31 [1], 37 nM	–	0.612
E31 [1], 111.1 nM	–	0.386
E31 [1], 333.3 nM	–	0.26
E31 [1], 1000 nM	–	0.234
E31 [1], 3000 nM	–	0.102
E31 [8], 4.1 nM	1.91	–
E31 [8], 12.3 nM	2.08	–
E31 [8], 37 nM	3.12	–
E31 [8], 111.1 nM	4.26	–
E31 [8], 333.3 nM	5.33	–
E31 [8], 1000 nM	5.33	–
E31 [8], 3000 nM	6.15	–
E34 [2], 4.1 nM	–	0.986
E34 [2], 12.3 nM	–	0.84
E34 [2], 37 nM	–	0.809
E34 [2], 111.1 nM	–	0.796
E34 [2], 333.3 nM	–	0.623
E34 [2], 1000 nM	–	0.471
E34 [2], 3000 nM	–	0.424
E34 [9], 4.1 nM	1.56	–
E34 [9], 12.3 nM	2.42	–
E34 [9], 37 nM	2.76	–
E34 [9], 111.1 nM	3.31	–
E34 [9], 333.3 nM	3.09	–
E34 [9], 1000 nM	2.85	–
E34 [9], 3000 nM	3.68	–
E57 [7], 4.1 nM	–	0.892
E57 [7], 12.3 nM	–	0.74
E57 [7], 37 nM	–	0.659
E57 [7], 111.1 nM	–	0.548
E57 [7], 333.3 nM	–	0.424
E57 [7], 1000 nM	–	0.302
E57 [7], 3000 nM	–	0.148
E57 [14], 4.1 nM	1.19	–
E57 [14], 12.3 nM	1.65	–
E57 [14], 37 nM	2.17	–
E57 [14], 111.1 nM	3.47	–
E57 [14], 333.3 nM	4.27	–
E57 [14], 1000 nM	5.35	–
E57 [14], 3000 nM	8.06	–
FT3469 [3], 4.1 nM	–	0.978
FT3469 [3], 12.3 nM	–	0.925
FT3469 [3], 37 nM	–	0.73
FT3469 [3], 111.1 nM	–	0.685
FT3469 [3], 333.3 nM	–	0.769
FT3469 [3], 1000 nM	–	0.685
FT3469 [3], 3000 nM	–	0.527
FT3469 [10], 4.1 nM	1.78	–
FT3469 [10], 12.3 nM	2	–
FT3469 [10], 37 nM	2.85	–
FT3469 [10], 111.1 nM	2.71	–
FT3469 [10], 333.3 nM	3.04	–
FT3469 [10], 1000 nM	2.81	–
FT3469 [10], 3000 nM	3.65	–
